Patent US20210045385A1, “PYRIDAZINONE-SUBSTITUTED KETOXIMES AS HERBICIDES” (FMC Corporation, priority 2018, published 2021)

How the values were obtained:
Type in all cases: in vivo
[1] = tested on: pigweed (Amaranthus retroflexus); test: Test C preemergence, visual plant response rating; conditions: Test C, 0 is no effect, 100 is complete control
In short: (§1)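 Seeds sown in a loam–sand blend got a directed preemergence soil spray; postemergence plants (2–10 cm, one- to two-leaf stage) were sprayed with compound in a non-phytotoxic solvent plus surfactant. Injury was scored visually against untreated controls after about 10 d in a greenhouse on a 0–100 scale (100 = complete control).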

[2] = tested on: Italian ryegrass (Lolium mutiflorum); test: Test C preemergence, visual plant response rating; conditions: Test C, 0 is no effect, 100 is complete control
In short: as §1

[3] = tested on: foxtail, giant (giant foxtail, Setaria faberi); test: Test C preemergence, visual plant response rating; conditions: Test C, 0 is no effect, 100 is complete control
In short: as §1

[4] = tested on: ragweed (common ragweed, Ambrosia artemisiifolia); test: Test C preemergence, visual plant response rating; conditions: Test C, 0 is no effect, 100 is complete control
In short: as §1

[5] = tested on: barnyardgrass (Echinochloa crus-galli); test: Test C preemergence, visual plant response rating; conditions: Test C, 0 is no effect, 100 is complete control
In short: as §1

[6] = tested on: kochia (Bassia scoparia); test: Test C preemergence, visual plant response rating; conditions: Test C, 0 is no effect, 100 is complete control
In short: as §1

[7] = tested on: duck salad (Heteranthera limosa); test: Test D flooded paddy test, visual plant response rating; conditions: 250 g ai/ha, scale 0 to 100 (0 no effect, 100 complete control), 13 to 15 d
In short: (§2)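 Greenhouse paddy assay scored on a 0–100 visual scale after 13 to 15 d, where 100 means complete control and a dash marks no result; dosing was into 3 cm floodwater over 2-leaf plants.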

[8] = tested on: sedge umbrella (small-flower umbrella sedge, Cyperus difformis); test: as above; conditions: 250 g ai/ha, scale 0 to 100 (0 no effect, 100 complete control), 13 to 15 d
In short: as §2

[9] = tested on: barnyardgrass (Echinochloa crus-galli); test: as above; conditions: 250 g ai/ha, scale 0 to 100 (0 no effect, 100 complete control), 13 to 15 d
In short: as §2

[10] = tested on: rice (Oryza sativa); test: as above; conditions: 250 g ai/ha, scale 0 to 100 (0 no effect, 100 complete control), 13 to 15 d
In short: as §2

[11] = tested on: corn (Zea mays); test: Test C postemergence, visual plant response rating
In short: as §1

[12] = tested on: pigweed (Amaranthus retroflexus); test: Test C postemergence, visual plant response rating
In short: as §1

[13] = tested on: Italian ryegrass (Lolium mutiflorum); test: Test C postemergence, visual plant response rating
In short: as §1

[14] = tested on: foxtail, giant (giant foxtail, Setaria faberi); test: Test C postemergence, visual plant response rating
In short: as §1

[15] = tested on: galium (catchweed bedstraw, Galium aparine); test: Test C postemergence, visual plant response rating
In short: as §1

[16] = tested on: ragweed (common ragweed, Ambrosia artemisiifolia); test: Test C postemergence, visual plant response rating
In short: as §1

[17] = tested on: blackgrass (Alopecurus myosuroides); test: Test C postemergence, visual plant response rating
In short: as §1

[18] = tested on: barnyardgrass (Echinochloa crus-galli); test: Test C postemergence, visual plant response rating
In short: as §1

[19] = tested on: kochia (Bassia scoparia); test: Test C postemergence, visual plant response rating
In short: as §1

[20] = tested on: wheat (Triticum aestivum); test: Test C postemergence, visual plant response rating
In short: as §1

[21] = Test C, postemergence, 125 g ai/ha

## CON=C(c1cc(Cl)cc(F)c1Cl)c1c(O)c(C)nn(C)c1=O [Compound 272]
[1]; 31 g ai/ha
  Pigweed plant response rating (0 to 100 scale): 70
[1]; 125 g ai/ha
  Pigweed plant response rating (0 to 100 scale): 100
[2]; 31 g ai/ha
  Ryegrass, Italian plant response rating (0 to 100 scale): 90
[2]; 125 g ai/ha
  Ryegrass, Italian plant response rating (0 to 100 scale): 100
[3]; 31 g ai/ha
  Foxtail, Giant plant response rating (0 to 100 scale): 80
[3]; 125 g ai/ha
  Foxtail, Giant plant response rating (0 to 100 scale): 80
[4]; 31 g ai/ha
  Ragweed plant response rating (0 to 100 scale): 20
[4]; 125 g ai/ha
  Ragweed plant response rating (0 to 100 scale): 40
[5]; 31 g ai/ha
  Barnyardgrass plant response rating (0 to 100 scale): 30
[5]; 125 g ai/ha
  Barnyardgrass plant response rating (0 to 100 scale): 50
[6]; 31 g ai/ha
  Kochia plant response rating (0 to 100 scale): 10
[6]; 125 g ai/ha
  Kochia plant response rating (0 to 100 scale): 90
[7]
  Plant response rating, Ducksalad (Flood): 60
[8]
  Plant response rating, Sedge, Umbrella (Flood): 65
[9]
  Plant response rating, Barnyardgrass (Flood): 25
[10]
  Plant response rating, Rice (Flood): 15
[11]; Postemergence, 31 g ai/ha
  Corn plant response rating (0 to 100 scale): 10
[11]; [21]
  Corn plant response rating (0 to 100 scale): 20
[12]; Postemergence, 31 g ai/ha
  Pigweed plant response rating (0 to 100 scale): 70
[12]; [21]
  Pigweed plant response rating (0 to 100 scale): 90
[13]; Postemergence, 31 g ai/ha
  Ryegrass, Italian plant response rating (0 to 100 scale): 90
[13]; [21]
  Ryegrass, Italian plant response rating (0 to 100 scale): 100
[14]; Postemergence, 31 g ai/ha
  Foxtail, Giant plant response rating (0 to 100 scale): 60
[14]; [21]
  Foxtail, Giant plant response rating (0 to 100 scale): 90
[15]; Postemergence, 31 g ai/ha
  Galium plant response rating (0 to 100 scale): 90
[15]; [21]
  Galium plant response rating (0 to 100 scale): 100
[16]; Postemergence, 31 g ai/ha
  Ragweed plant response rating (0 to 100 scale): 60
[16]; [21]
  Ragweed plant response rating (0 to 100 scale): 80
[17]; Postemergence, 31 g ai/ha
  Blackgrass plant response rating (0 to 100 scale): 30
[17]; [21]
  Blackgrass plant response rating (0 to 100 scale): 80
[18]; Postemergence, 31 g ai/ha
  Barnyardgrass plant response rating (0 to 100 scale): 40
[18]; [21]
  Barnyardgrass plant response rating (0 to 100 scale): 60
[19]; Postemergence, 31 g ai/ha
  Kochia plant response rating (0 to 100 scale): 70
[19]; [21]
  Kochia plant response rating (0 to 100 scale): 80
[20]; Postemergence, 31 g ai/ha
  Wheat plant response rating (0 to 100 scale): 30
[20]; [21]
  Wheat plant response rating (0 to 100 scale): 60

## CCO/N=C(/c1c(O)cnn(C)c1=O)c1ccc(F)c2ccccc12 [Compound 270]
[1]; 31 g ai/ha
  Pigweed plant response rating (0 to 100 scale): 0
[1]; 125 g ai/ha
  Pigweed plant response rating (0 to 100 scale): 0
[2]; 31 g ai/ha
  Ryegrass, Italian plant response rating (0 to 100 scale): 0
[2]; 125 g ai/ha
  Ryegrass, Italian plant response rating (0 to 100 scale): 10
[3]; 31 g ai/ha
  Foxtail, Giant plant response rating (0 to 100 scale): 0
[3]; 125 g ai/ha
  Foxtail, Giant plant response rating (0 to 100 scale): 20
[4]; 31 g ai/ha
  Ragweed plant response rating (0 to 100 scale): 0
[4]; 125 g ai/ha
  Ragweed plant response rating (0 to 100 scale): 10
[5]; 31 g ai/ha
  Barnyardgrass plant response rating (0 to 100 scale): 0
[5]; 125 g ai/ha
  Barnyardgrass plant response rating (0 to 100 scale): 0
[6]; 31 g ai/ha
  Kochia plant response rating (0 to 100 scale): 0
[6]; 125 g ai/ha
  Kochia plant response rating (0 to 100 scale): 0
[7]
  Plant response rating, Ducksalad (Flood): 0
[8]
  Plant response rating, Sedge, Umbrella (Flood): 0
[9]
  Plant response rating, Barnyardgrass (Flood): 0
[10]
  Plant response rating, Rice (Flood): 0
[11]; Postemergence, 31 g ai/ha
  Corn plant response rating (0 to 100 scale): 0
[11]; [21]
  Corn plant response rating (0 to 100 scale): 0
[12]; Postemergence, 31 g ai/ha
  Pigweed plant response rating (0 to 100 scale): 80
[12]; [21]
  Pigweed plant response rating (0 to 100 scale): 50
[13]; Postemergence, 31 g ai/ha
  Ryegrass, Italian plant response rating (0 to 100 scale): 0
[13]; [21]
  Ryegrass, Italian plant response rating (0 to 100 scale): 10
[14]; Postemergence, 31 g ai/ha
  Foxtail, Giant plant response rating (0 to 100 scale): 0
[14]; [21]
  Foxtail, Giant plant response rating (0 to 100 scale): 10
[15]; Postemergence, 31 g ai/ha
  Galium plant response rating (0 to 100 scale): 50
[15]; [21]
  Galium plant response rating (0 to 100 scale): 80
[16]; Postemergence, 31 g ai/ha
  Ragweed plant response rating (0 to 100 scale): 20
[16]; [21]
  Ragweed plant response rating (0 to 100 scale): 70
[17]; Postemergence, 31 g ai/ha
  Blackgrass plant response rating (0 to 100 scale): 0
[17]; [21]
  Blackgrass plant response rating (0 to 100 scale): 30
[18]; Postemergence, 31 g ai/ha
  Barnyardgrass plant response rating (0 to 100 scale): 0
[18]; [21]
  Barnyardgrass plant response rating (0 to 100 scale): 0
[19]; Postemergence, 31 g ai/ha
  Kochia plant response rating (0 to 100 scale): 20
[19]; [21]
  Kochia plant response rating (0 to 100 scale): 30
[20]; Postemergence, 31 g ai/ha
  Wheat plant response rating (0 to 100 scale): 0
[20]; [21]
  Wheat plant response rating (0 to 100 scale): 0

## CON=C(c1cc(F)cc(F)c1F)c1c(O)c(C)nn(C)c1=O [Compound 227]
[1]; 31 g ai/ha
  Pigweed plant response rating (0 to 100 scale): 0
[1]; 125 g ai/ha
  Pigweed plant response rating (0 to 100 scale): 10
[2]; 31 g ai/ha
  Ryegrass, Italian plant response rating (0 to 100 scale): 30
[2]; 125 g ai/ha
  Ryegrass, Italian plant response rating (0 to 100 scale): 60
[3]; 31 g ai/ha
  Foxtail, Giant plant response rating (0 to 100 scale): 0
[3]; 125 g ai/ha
  Foxtail, Giant plant response rating (0 to 100 scale): 30
[4]; 31 g ai/ha
  Ragweed plant response rating (0 to 100 scale): 20
[4]; 125 g ai/ha
  Ragweed plant response rating (0 to 100 scale): 80
[5]; 31 g ai/ha
  Barnyardgrass plant response rating (0 to 100 scale): 0
[5]; 125 g ai/ha
  Barnyardgrass plant response rating (0 to 100 scale): 20
[6]; 31 g ai/ha
  Kochia plant response rating (0 to 100 scale): 0
[6]; 125 g ai/ha
  Kochia plant response rating (0 to 100 scale): 10
[7]
  Plant response rating, Ducksalad (Flood): 0
[8]
  Plant response rating, Sedge, Umbrella (Flood): 0
[9]
  Plant response rating, Barnyardgrass (Flood): 0
[10]
  Plant response rating, Rice (Flood): 0
[11]; Postemergence, 31 g ai/ha
  Corn plant response rating (0 to 100 scale): 0
[11]; [21]
  Corn plant response rating (0 to 100 scale): 0
[12]; Postemergence, 31 g ai/ha
  Pigweed plant response rating (0 to 100 scale): 30
[12]; [21]
  Pigweed plant response rating (0 to 100 scale): 50
[13]; Postemergence, 31 g ai/ha
  Ryegrass, Italian plant response rating (0 to 100 scale): 20
[13]; [21]
  Ryegrass, Italian plant response rating (0 to 100 scale): 40
[14]; Postemergence, 31 g ai/ha
  Foxtail, Giant plant response rating (0 to 100 scale): 0
[14]; [21]
  Foxtail, Giant plant response rating (0 to 100 scale): 0
[15]; Postemergence, 31 g ai/ha
  Galium plant response rating (0 to 100 scale): 60
[15]; [21]
  Galium plant response rating (0 to 100 scale): 80
[16]; Postemergence, 31 g ai/ha
  Ragweed plant response rating (0 to 100 scale): 20
[16]; [21]
  Ragweed plant response rating (0 to 100 scale): 50
[17]; Postemergence, 31 g ai/ha
  Blackgrass plant response rating (0 to 100 scale): 0
[17]; [21]
  Blackgrass plant response rating (0 to 100 scale): 0
[18]; Postemergence, 31 g ai/ha
  Barnyardgrass plant response rating (0 to 100 scale): 0
[18]; [21]
  Barnyardgrass plant response rating (0 to 100 scale): 20
[19]; Postemergence, 31 g ai/ha
  Kochia plant response rating (0 to 100 scale): 30
[19]; [21]
  Kochia plant response rating (0 to 100 scale): 70
[20]; Postemergence, 31 g ai/ha
  Wheat plant response rating (0 to 100 scale): 0
[20]; [21]
  Wheat plant response rating (0 to 100 scale): 0
